Measurements from US4605744A, “Imidazole derivatives” (Hoffmann-La Roche Inc., priority 1985, dated 1986).
Counter-ions that a name gives are not always drawn. Like-named read-outs stand apart in the source and are kept apart here.

What was measured:
Assay in all cases: In vitro antibacterial activity (MIC)
Assay type in all cases: cell-based
P. aeruginosa 8780 = details: Pseudomonas aeruginosa; P. aeruginosa 8780; read-out: MIC
In short: (§1)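 Read-out: visible growth, checked with a viewer after overnight incubation at 37° C. Bacteria, from a 10^-2 dilution of an overnight culture, were exposed to drug at 128 to 0.008 μg/ml in Mueller-Hinton broth.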

P. aeruginosa 503-56 = details: Pseudomonas aeruginosa, 50356, P. aeruginosa 503-56; read-out: MIC
In short: as §1

P. aeruginosa 503-820 = details: Pseudomonas aeruginosa, 503820; P. aeruginosa 503-820; read-out: MIC
In short: as §1

S. aureus 1059B = details: Staphylococcus aureus, read-out: MIC
In short: as §1

K. pneumoniae 5096 = details: Klebsiella pneumoniae; K. pneumoniae 5096; read-out: MIC
In short: as §1

S. marcescens S1 = details: Serratia marcescens, S1, S. marcescens S1; read-out: MIC
In short: as §1

P. mirabilis 90 = details: Proteus mirabilis, 90, P. mirabilis 90; read-out: MIC
In short: as §1

E. cloacae 6951 = system: E. cloacae 6951
In short: as §1

P. mirabilis 620A = details: Proteus mirabilis, 620A
In short: as §1

P. vulgaris 100 = details: Proteus vulgaris; P. vulgaris 100; read-out: MIC
In short: as §1

E. cloacae P99 = details: Enterobacter cloacae, P99, E. cloacae P99
In short: as §1

S. pneumoniae SC = details: Streptococcus pneumoniae, read-out: MIC
In short: as §1

E. aerogenes 503-478 = details: Klebsiella aerogenes, 503478, E. aerogenes 503-478; read-out: MIC
In short: as §1

E. coli 48 = details: Escherichia coli, 48, E. coli 48; read-out: MIC
In short: as §1

P. aeruginosa POW 151 = details: Pseudomonas aeruginosa, POW151
In short: as §1

S. marcescens S2 = details: Serratia marcescens; S. marcescens S2; read-out: MIC
In short: as §1

P. aeruginosa 6148B = details: Pseudomonas aeruginosa, read-out: MIC
In short: as §1

E. cloacae 9570A = details: Enterobacter cloacae, read-out: MIC
In short: as §1

K. pneumoniae A = details: Klebsiella pneumoniae, K. pneumoniae A; read-out: MIC
In short: as §1

S. pneumoniae 6302 = details: Streptococcus pneumoniae, 6302, S. pneumoniae 6302; read-out: MIC
In short: as §1

C. diversus CDC 1663-72 = details: Citrobacter koseri, CDC166372; C. diversus CDC 1663-72; read-out: MIC
In short: as §1

S. schottmuelleri = system: S. schottmuelleri
In short: as §1

E. coli 4 = details: Escherichia coli, 4, E. coli 4; read-out: MIC
In short: as §1

E. cloacae 214 = details: Enterobacter cloacae, 214, E. cloacae 214; read-out: MIC
In short: as §1

S. aureus Smith = details: Staphylococcus aureus, S. aureus Smith; read-out: MIC
In short: as §1

P. vulgaris 101 = details: Proteus vulgaris, 101, P. vulgaris 101; read-out: MIC
In short: as §1

E. cloacae 5699 = details: Enterobacter cloacae, 5699, E. cloacae 5699; read-out: MIC
In short: as §1

E. cloacae 24 = details: Enterobacter cloacae, 24, E. cloacae 24; read-out: MIC
In short: as §1

S. marcescens S5 = details: Serratia marcescens, S5, S. marcescens S5; read-out: MIC
In short: as §1

E. coli 5152 = system: E. coli 5152
In short: as §1

P. aeruginosa 5712 = details: Pseudomonas aeruginosa; P. aeruginosa 5712; read-out: MIC
In short: as §1

P. vulgaris ATCC 6380 = details: Proteus vulgaris, ATCC6380, P. vulgaris ATCC 6380; read-out: MIC
In short: as §1

S. pneumoniae 6301 = system: S. pneumoniae 6301
In short: as §1

P. mirabilis 503-1136 = details: Proteus mirabilis, 5031136, P. mirabilis 503-1136; read-out: MIC
In short: as §1

C. freundii CDC6 = details: Citrobacter freundii, CDC6, C. freundii CDC6; read-out: MIC
In short: as §1

E. aerogenes 8 = details: Klebsiella aerogenes; E. aerogenes 8; read-out: MIC
In short: as §1

S. marcescens S4 = details: Serratia marcescens, S4, S. marcescens S4; read-out: MIC
In short: as §1

E. coli R-563 = details: Escherichia coli, R563, E. coli R-563; read-out: MIC
In short: as §1

P. mirabilis 2 = details: Proteus mirabilis, 2, P. mirabilis 2; read-out: MIC
In short: as §1

C. freundii 8ASM = details: Citrobacter freundii, 8ASM, C. freundii 8ASM; read-out: MIC
In short: as §1

E. coli 503-455 = system: E. coli 503-455
In short: as §1

K. pneumoniae 4964 = system: K. pneumoniae 4964
In short: as §1

K. pneumoniae 503-994 = details: Klebsiella pneumoniae, 503994, K. pneumoniae 503-994; read-out: MIC
In short: as §1

S. pyogenes 503-782 = details: Streptococcus pyogenes, 503782; S. pyogenes 503-782; read-out: MIC
In short: as §1

Work on `CC1(C)S[C@@H]2[C@H](N=CN3CCC(Cn4ccnc4CN)CC3)C(=O)N2[C@H]1C(=O)O` [J, [2S-(2alpha,5alpha,6beta)]-6-[[[4-[[2-(aminomethyl)-1H-imidazol-1-yl]methyl]-1-piperidinyl]methylene]amino]-3,3-dimethyl-7-oxo-4-thia-1-azabicyclo[3.2.0]heptane-2-carboxylic acid hydrochloride] yielded an MIC (P. aeruginosa 8780) greater than 128 µg/mL, an MIC (P. aeruginosa 503-56) of 64 µg/mL and an MIC (P. aeruginosa 503-820) greater than 128 µg/mL. For the same compound, the MIC (S. aureus 1059B) was greater than 128 µg/mL, the MIC (K. pneumoniae 5096) was 128 µg/mL and the MIC (S. marcescens S1) was 0.5 µg/mL. For the same compound, the MIC (P. mirabilis 90) was 1 µg/mL, the MIC (E. cloacae 6951; Enterobacter cloacae, 6951, E. cloacae 6951, read-out: MIC) was 16 µg/mL and the MIC (P. mirabilis 620A; P. mirabilis 620A, read-out: MIC) was greater than 128 µg/mL. It also gave an MIC (P. vulgaris 100) of 8 µg/mL, an MIC (E. cloacae P99) of 8 µg/mL and an MIC (S. pneumoniae SC) of 4 µg/mL. For the same compound, the MIC (E. aerogenes 503-478) was 8 µg/mL, the MIC (E. coli 48) was 8 µg/mL and the MIC (P. aeruginosa POW 151) was greater than 128 µg/mL. For the same compound, the MIC (S. marcescens S2) was 0.25 µg/mL, the MIC (P. aeruginosa 6148B) was 128 µg/mL and the MIC (E. cloacae 9570A) was 0.5 µg/mL. The MIC (K. pneumoniae A) was 0.062 µg/mL, the MIC (S. pneumoniae 6302) was 4 µg/mL and the MIC (C. diversus CDC 1663-72) was 0.031 µg/mL. It also gave an MIC (S. schottmuelleri) of 0.062 µg/mL, an MIC (E. coli 4) of 0.062 µg/mL and an MIC (E. cloacae 214) of 1 µg/mL. The MIC (S. aureus Smith) was 8 µg/mL, the MIC (P. vulgaris 101) was 8 µg/mL and the MIC (E. cloacae 5699) was 4 µg/mL. It also gave an MIC (E. cloacae 24) of 0.5 µg/mL, an MIC (S. marcescens S5) of 0.5 µg/mL and an MIC (E. coli 5152; Escherichia coli, 5152, E. coli 5152, read-out: MIC) of 16 µg/mL. For the same compound, the MIC (P. aeruginosa 5712) was greater than 128 µg/mL, the MIC (P. vulgaris ATCC 6380) was 0.125 µg/mL and the MIC (S. pneumoniae 6301; Streptococcus pneumoniae, 6301, S. pneumoniae 6301, read-out: MIC) was 1 µg/mL. The MIC (P. mirabilis 503-1136) was 8 µg/mL, the MIC (C. freundii CDC6) was 64 µg/mL and the MIC (E. aerogenes 8) was 0.5 µg/mL. For the same compound, the MIC (S. marcescens S4) was 1 µg/mL, the MIC (E. coli R-563) was 0.125 µg/mL and the MIC (P. mirabilis 2) was 8 µg/mL. It also gave an MIC (C. freundii 8ASM) of 0.125 µg/mL, an MIC (E. coli 503-455; Escherichia coli, 503455, E. coli 503-455, read-out: MIC) of 1 µg/mL and an MIC (K. pneumoniae 4964; Klebsiella pneumoniae, 4964, K. pneumoniae 4964, read-out: MIC) of 0.5 µg/mL. It also gave an MIC (K. pneumoniae 503-994) of 8 µg/mL and an MIC (S. pyogenes 503-782) of 128 µg/mL.
`CC1(C)S[C@@H]2[C@H](N=CN3CCC(CCCn4ccnc4N)CC3)C(=O)N2[C@H]1C(=O)O` [I, [2S-(2alpha,5alpha,6beta)]-6-[[[4-[3-(2-amino-1H-imidazol-1-yl)propyl]piperidinyl]methylene]amino]-3,3-dimethyl-7-oxo-4-thia-1-azabicyclo[3.2.0]hpetane-2-carboxylic acid hydrochloride] gave an MIC (P. aeruginosa 8780) greater than 128 µg/mL, an MIC (P. aeruginosa 503-56) of 128 µg/mL and an MIC (P. aeruginosa 503-820) of 128 µg/mL. For the same compound, the MIC (S. aureus 1059B) was 64 µg/mL, the MIC (K. pneumoniae 5096) was greater than 128 µg/mL and the MIC (S. marcescens S1) was 0.062 µg/mL. For the same compound, the MIC (P. mirabilis 90) was 4 µg/mL, the MIC (E. cloacae 6951; Enterobacter cloacae, 6951) was 8 µg/mL and the MIC (P. mirabilis 620A) was 32 µg/mL. For the same compound, the MIC (P. vulgaris 100) was 4 µg/mL, the MIC (E. cloacae P99) was 0.031 µg/mL and the MIC (S. pneumoniae SC) was 4 µg/mL. It also gave an MIC (E. aerogenes 503-478) of 1 µg/mL, an MIC (E. coli 48) of 0.031 µg/mL and an MIC (P. aeruginosa POW 151) greater than 128 µg/mL. It also gave an MIC (S. marcescens S2) of 0.062 µg/mL, an MIC (P. aeruginosa 6148B) of 128 µg/mL and an MIC (E. cloacae 9570A) of 0.125 µg/mL. For the same compound, the MIC (K. pneumoniae A) was less than 0.008 µg/mL, the MIC (S. pneumoniae 6302) was 4 µg/mL and the MIC (C. diversus CDC 1663-72) was 0.031 µg/mL. The MIC (S. schottmuelleri; read-out: MIC) was 0.031 µg/mL, the MIC (E. coli 4) was 0.031 µg/mL and the MIC (E. cloacae 214) was 0.062 µg/mL. For the same compound, the MIC (S. aureus Smith) was 16 µg/mL, the MIC (P. vulgaris 101) was 128 µg/mL and the MIC (E. cloacae 5699) was 0.062 µg/mL. It also gave an MIC (E. cloacae 24) of 0.125 µg/mL, an MIC (S. marcescens S5) of 0.25 µg/mL and an MIC (E. coli 5152; Escherichia coli, 5152) of 4 µg/mL. It also gave an MIC (P. aeruginosa 5712) greater than 128 µg/mL, an MIC (P. vulgaris ATCC 6380) of 0.062 µg/mL and an MIC (S. pneumoniae 6301; Streptococcus pneumoniae, 6301) of 2 µg/mL. For the same compound, the MIC (P. mirabilis 503-1136) was 4 µg/mL, the MIC (C. freundii CDC6) was 0.031 µg/mL and the MIC (E. aerogenes 8) was 128 µg/mL. The MIC (S. marcescens S4) was 0.25 µg/mL, the MIC (E. coli R-563) was 0.062 µg/mL and the MIC (P. mirabilis 2) was 0.25 µg/mL. It also gave an MIC (C. freundii 8ASM) of 0.031 µg/mL, an MIC (E. coli 503-455; Escherichia coli, 503455) of 1 µg/mL and an MIC (K. pneumoniae 4964; Klebsiella pneumoniae, 4964) of 0.25 µg/mL. It also gave an MIC (K. pneumoniae 503-994) of 0.062 µg/mL and an MIC (S. pyogenes 503-782) greater than 128 µg/mL.
